This passage reports inhibition in vivo, Activity and UI results from ChEMBL document CHEMBL3046346, “Synthesis and analgesic, anti-inflammatory activities of 3-(3-methoxyphenyl)-2-substituted amino-quinazolin-4(3H)-ones” (Med Chem Res, 2011).

Data set [1] relates to Rattus norvegicus. The data set is described as follows: Anti-inflammatory activity in Rattus norvegicus (rat) assessed as inhibition of carrageenan-induced paw edema at 10 mg/kg, po measured at 3 hr. It is filed as functional. (In the carrageenan paw model, swelling and tenderness develop within hours.)
Data set [2] concerns Mus musculus. The data set is described as follows: […] activity in Mus musculus Wistar albino (mouse) at 10 mg/kg, po after 2 hr by tail-flick test. It is filed as functional. (Hot-plate and tail-flick tests time the reaction to a heat stimulus.)
Data set [3] relates to Mus musculus. The data set is described as follows: […] activity in Mus musculus Wistar albino (mouse) at 10 mg/kg, po after 3 hr by tail-flick test. It is filed as functional.
Data set [4] concerns Rattus norvegicus. The data set is described as follows: Anti-inflammatory activity in Rattus norvegicus (rat) assessed as inhibition of carrageenan-induced paw edema at 10 mg/kg, po measured at 30 min. The following applies: 0.5 h. It is filed as functional.
Data set [5] has as its system Rattus norvegicus. The data set is described as follows: Anti-inflammatory activity in Rattus norvegicus (rat) assessed as inhibition of carrageenan-induced paw edema at 10 mg/kg, po measured at 2 hr. It is filed as functional.
Data set [6] deals with Rattus norvegicus. As to the kind of experiment: Anti-inflammatory activity in Rattus norvegicus (rat) assessed as inhibition of carrageenan-induced paw edema at 10 mg/kg, po measured at 1 hr. It is filed as functional.
The test system of data set [7] is Rattus norvegicus. The data set is described as follows: Gastrointestinal toxicity in fasted Rattus norvegicus Wistar albino (rat) assessed as ulcer index at 20 mg/kg, ip measured after 4 hr. Set-up: dose 20 mg/kg, route intraperitoneal. It is filed as organism-based. As to conditions: in vivo.
In data set [8] the test system is Mus musculus. The data set is described as follows: […] activity in Mus musculus Wistar albino (mouse) at 10 mg/kg, po after 1 hr by tail-flick test. It is filed as functional.
Data set [9] concerns Mus musculus. The data set is described as follows: […] activity in Mus musculus Wistar albino (mouse) at 10 mg/kg, po after 30 min by tail-flick test. It is filed as functional.

For `CCC(CC)=NNc1nc2ccccc2c(=O)n1-c1cccc(OC)c1`, the inhibition in vivo at 10 mg/kg with Rattus norvegicus [1] came to 34%; in the data set with Rattus norvegicus [4], 45%; in the data set with Rattus norvegicus [5], 53%; in the data set on Rattus norvegicus [6], 48%. For the same compound, the Activity was 66% with Mus musculus [2], 38% in the data set on Mus musculus [3], 61% with Mus musculus [8] and 56% in the data set on Mus musculus [9]. Also, the UI in the data set with Rattus norvegicus [7] came to 0.51.

As for `CCC/C(C)=N/Nc1nc2ccccc2c(=O)n1-c1cccc(OC)c1`, the inhibition in vivo at 10 mg/kg in the data set with Rattus norvegicus [1] amounted to 34%; in the data set with Rattus norvegicus [4] it was 42%; with Rattus norvegicus [5], 49%; with Rattus norvegicus [6], 47%. The Activity turned out to be 68% with Mus musculus [2], 41% in the data set with Mus musculus [3], 64% with Mus musculus [8] and 57% in the data set on Mus musculus [9]. The UI in the data set with Rattus norvegicus [7] is 0.58.

Regarding `COc1cccc(-n2c(NN=C3CCCCC3)nc3ccccc3c2=O)c1`, the inhibition in vivo at 10 mg/kg was determined as 31% with Rattus norvegicus [1], 37% in the data set on Rattus norvegicus [4], 43% in the data set on Rattus norvegicus [5] and 40% with Rattus norvegicus [6]. For the same compound, the Activity amounted to 53% in the data set with Mus musculus [2], 38% with Mus musculus [3], 49% with Mus musculus [8] and 46% in the data set with Mus musculus [9]. For the same compound, in the data set on Rattus norvegicus [7], the UI was found to be 0.61.

Turning to `COc1cccc(-n2c(N/N=C(\C)c3ccccc3)nc3ccccc3c2=O)c1`, the inhibition in vivo at 10 mg/kg with Rattus norvegicus [1] is 32%; with Rattus norvegicus [4] it was 39%; with Rattus norvegicus [5], 45%; in the data set on Rattus norvegicus [6], 42%. The Activity is 51% in the data set with Mus musculus [2], 36% with Mus musculus [3], 46% in the data set on Mus musculus [8] and 44% in the data set with Mus musculus [9]. The UI with Rattus norvegicus [7] stood at 0.62.

In the case of `COc1cccc(-n2c(N/N=C3/C(=O)Nc4ccccc43)nc3ccccc3c2=O)c1`, the inhibition in vivo at 10 mg/kg in the data set on Rattus norvegicus [1] stood at 31%; in the data set with Rattus norvegicus [4], 35%; with Rattus norvegicus [5], 40%; in the data set on Rattus norvegicus [6], 37%. Besides, the Activity in the data set with Mus musculus [2] came out at 46%; with Mus musculus [3] it was 36%; in the data set on Mus musculus [8], 43%; with Mus musculus [9], 39%.

Take `COc1cccc(-n2c(N/N=C\c3ccccc3)nc3ccccc3c2=O)c1`: the inhibition in vivo at 10 mg/kg was found to be 31% in the data set on Rattus norvegicus [1], 35% in the data set on Rattus norvegicus [4], 47% in the data set with Rattus norvegicus [5] and 38% with Rattus norvegicus [6]. The Activity is on record as 47% in the data set with Mus musculus [2], 35% with Mus musculus [3], 47% in the data set on Mus musculus [8] and 40% in the data set on Mus musculus [9].

`COc1cccc(-n2c(N/N=C\c3ccccc3Cl)nc3ccccc3c2=O)c1`: the inhibition in vivo at 10 mg/kg came to 27% with Rattus norvegicus [1], 29% with Rattus norvegicus [4], 37% with Rattus norvegicus [5] and 33% in the data set with Rattus norvegicus [6]. Besides, the Activity in the data set on Mus musculus [2] came to 42%; with Mus musculus [3], 33%; in the data set on Mus musculus [8] it was 39%; with Mus musculus [9], 32%.

For the compound `COc1cccc(-n2c(N/N=C\c3ccc(Cl)cc3)nc3ccccc3c2=O)c1`, the inhibition in vivo at 10 mg/kg in the data set on Rattus norvegicus [1] worked out at 27%; in the data set on Rattus norvegicus [4], 33%; in the data set on Rattus norvegicus [5] it was 37%; with Rattus norvegicus [6], 36%. The Activity in the data set with Mus musculus [2] was 42%; in the data set with Mus musculus [3], 34%; with Mus musculus [8], 40%; with Mus musculus [9], 34%.

As to `COc1cccc(-n2c(N/N=C\c3ccccc3[N+](=O)[O-])nc3ccccc3c2=O)c1`, the inhibition in vivo at 10 mg/kg in the data set with Rattus norvegicus [1] is 27%; in the data set with Rattus norvegicus [4], 35%; in the data set on Rattus norvegicus [5], 38%; in the data set on Rattus norvegicus [6] it was 35%. The Activity in the data set on Mus musculus [2] came to 45%; in the data set on Mus musculus [3], 36%; in the data set on Mus musculus [8] it was 41%; in the data set with Mus musculus [9], 35%.

Turning to `COc1cccc(-n2c(N/N=C\c3ccc([N+](=O)[O-])cc3)nc3ccccc3c2=O)c1`, the inhibition in vivo at 10 mg/kg was found to be 29% with Rattus norvegicus [1], 33% in the data set with Rattus norvegicus [4], 37% in the data set on Rattus norvegicus [5] and 35% with Rattus norvegicus [6]. Further, the Activity with Mus musculus [2] is recorded as 42%; with Mus musculus [3], 36%; with Mus musculus [8], 40%; in the data set on Mus musculus [9] it was 35%.

In the case of `COc1ccc(/C=N\Nc2nc3ccccc3c(=O)n2-c2cccc(OC)c2)cc1`, the inhibition in vivo at 10 mg/kg in the data set with Rattus norvegicus [1] was 27%; with Rattus norvegicus [4], 29%; in the data set on Rattus norvegicus [5], 37%; in the data set on Rattus norvegicus [6] it was 35%. The Activity was 41% in the data set with Mus musculus [2], 30% in the data set with Mus musculus [3], 37% with Mus musculus [8] and 30% in the data set on Mus musculus [9].

For the compound `COc1cccc(-n2c(N/N=C\c3ccccc3C)nc3ccccc3c2=O)c1`, the inhibition in vivo at 10 mg/kg amounted to 30% in the data set with Rattus norvegicus [1], 36% in the data set with Rattus norvegicus [4], 42% with Rattus norvegicus [5] and 41% in the data set with Rattus norvegicus [6]. The Activity is 51% with Mus musculus [2], 34% in the data set with Mus musculus [3], 45% in the data set on Mus musculus [8] and 39% with Mus musculus [9].

For `COc1cccc(-n2c(N/N=C\c3ccc(C)cc3)nc3ccccc3c2=O)c1`, the inhibition in vivo at 10 mg/kg came to 28% in the data set on Rattus norvegicus [1], 32% with Rattus norvegicus [4], 40% in the data set on Rattus norvegicus [5] and 35% in the data set on Rattus norvegicus [6]. Also, the Activity in the data set on Mus musculus [2] came out at 50%; in the data set with Mus musculus [3], 37%; in the data set with Mus musculus [8], 48%; in the data set on Mus musculus [9], 44%.

On to `COc1cccc(-n2c(NN=C(c3ccccc3)c3ccccc3)nc3ccccc3c2=O)c1`, for which the inhibition in vivo at 10 mg/kg came out at 30% in the data set with Rattus norvegicus [1], 33% with Rattus norvegicus [4], 41% in the data set with Rattus norvegicus [5] and 38% in the data set with Rattus norvegicus [6]. Also, the Activity in the data set with Mus musculus [2] is given as 49%; in the data set with Mus musculus [3] it was 36%; in the data set on Mus musculus [8], 46%; with Mus musculus [9] it was 41%.

In the case of `CC/C(C)=N/Nc1nc2ccccc2c(=O)n1-c1cccc(OC)c1`, the inhibition in vivo at 10 mg/kg in the data set with Rattus norvegicus [1] turned out to be 32%; in the data set with Rattus norvegicus [4] it was 41%; in the data set on Rattus norvegicus [5], 46%; in the data set on Rattus norvegicus [6] it was 45%. Also, the Activity with Mus musculus [2] worked out at 61%; with Mus musculus [3] it was 37%; in the data set on Mus musculus [8], 58%; in the data set on Mus musculus [9], 53%. The UI in the data set on Rattus norvegicus [7] is 0.53.

For `CC(=O)Oc1ccccc1C(=O)O` [ASPIRIN], the UI in the data set on Rattus norvegicus [7] was found to be 1.73.

For the compound `O=C([O-])Cc1ccccc1Nc1c(Cl)cccc1Cl.[Na+]` [DICLOFENAC SODIUM], the inhibition in vivo at 10 mg/kg with Rattus norvegicus [1] was determined as 33%; in the data set with Rattus norvegicus [4], 32%; in the data set on Rattus norvegicus [5], 39%; with Rattus norvegicus [6] it was 38%. Also, the Activity stood at 45% in the data set on Mus musculus [2], 33% in the data set with Mus musculus [3], 43% with Mus musculus [8] and 37% in the data set with Mus musculus [9]. Further, the UI with Rattus norvegicus [7] stood at 1.65.

In general, inhibition in vivo refers to the drop in the measured response relative to a control, in per cent.
